Measured values published in patent US20260098017A1, “NOVEL AROMATIC RING DERIVATIVE CONTAINING AMIDE SUBSTITUTION AND USE THEREOF” (TIANJIN PHARMACEUTICAL BIOTECHNOLOGY CO., LTD., priority 2022, published 2026).

Molecular target: JAK1 JH2 pseudokinase (Homo sapiens, UniProt P23458)
Test: JAK1 JH2 enzyme binding assay in vitro (TR-FRET)
Settings: read-out: JAK 1 JH2 IC50
Method: Instrumentation: Envision microplate reader (PerkinElmer), Echo (LABCYTE)
Method: in this experiment, the inhibitory effects of compounds on JAK1 JH2 pseudokinase was tested using time-resolved fluorescence resonance energy transfer (TR-FRET) method.
Procedure: compounds were prepared into 10 mM stock solutions using DMSO, which were further diluted into compound dilutions with different concentration gradients in DMSO, and the compound dilutions with 200× final concentration were transferred to a 384-well assay plate using an Echo instrument. The preparation of the following 1× assay working solution: HEPES pH7.5 at a final concentration of 20 mM, MgCl2 at a final concentration of 10 mM, Brij-35 at a final concentration of 0.015%, DTT at a final concentration of 2 mM, BSA at a final concentration of 50 ug/mL. JAK1 JH2 pseudokinase with 3× final concentration, Tb antibody and Tracer were prepared using their respective 1× working solution. 5 uL of JAK1 JH2 pseudokinase was added to a 384-well assay plate, and centrifuged at 1000 rpm for 30 s. 5 uL of Tb antibody was added to the 384-well assay plate, and centrifuged at 1000 rpm for 30 s. 5 uL of Tracer was added to the 384-well assay plate, and centrifuged at 1000 rpm for 30 s. Incubation was performed at room temperature for 60 min, and then at 4° C. overnight. Finally, the 495 nm/520 nm fluorescence signal ratio was measured using the Envision microplate reader (PerkinElmer).
Data Analysis: XLfit, a software developed by IDBS and integrated into the Microsoft Excel environment, was used to process and analyze the test data. […] Thereafter, the concentration and corresponding inhibition rate data were imported into the XLfit software, and the Dose Response One Site 205 model within the software was employed to fit the inhibition rate-concentration curve by four-parameter method, and the IC50 value of the compound was calculated.

JAK1 JH2 pseudokinase, sequence (P23458 583-855 limits assumed): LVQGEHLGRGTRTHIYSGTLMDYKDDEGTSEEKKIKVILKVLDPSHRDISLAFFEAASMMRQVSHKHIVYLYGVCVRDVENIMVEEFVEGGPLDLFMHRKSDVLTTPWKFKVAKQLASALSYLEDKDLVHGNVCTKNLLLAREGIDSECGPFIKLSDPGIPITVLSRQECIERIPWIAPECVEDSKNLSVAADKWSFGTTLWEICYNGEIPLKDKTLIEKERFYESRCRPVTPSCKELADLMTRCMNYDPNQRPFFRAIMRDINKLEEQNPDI

Structure (SMILES): [2H]C([2H])([2H])NC(=O)c1nnc(NC(=O)C2CC2)cc1Nc1cccc(C(=O)Nc2cccc(C)c2)c1OC [Example 3]
- IC50: 9.74 nM
